Where a name gives a salt, the structure may show the parent alone.
Experiments:
[1] = molecular target: T1, Lot6p (Saccharomyces cerevisiae, UniProt Q07923); test: stopped-flow oxidation of reduced enzyme at […] nm; type: biochemical
T1 sequence (Q07923 1-191): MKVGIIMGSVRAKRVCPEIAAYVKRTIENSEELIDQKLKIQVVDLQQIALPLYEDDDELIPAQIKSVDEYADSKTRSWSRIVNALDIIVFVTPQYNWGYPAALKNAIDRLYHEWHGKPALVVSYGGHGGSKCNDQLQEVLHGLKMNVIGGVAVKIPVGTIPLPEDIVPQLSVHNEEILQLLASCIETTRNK

[2] = molecular target: T1, Lot6p; type: biochemical

Row | Compound | k2 [1] | Kd [2]
1 | O=C1C=C(S(=O)(=O)O)c2ccccc2C1=O [1,2-Napthoquinone-4-sulfonic acid, Na salt] | 142000 M⁻¹ s⁻¹ | 
2 | O=C1C=CC(=O)C=C1 [1,4-Benzoquinone] | 1.03e+07 M⁻¹ s⁻¹ | 
3 | O=C1C=C(O)C(=O)c2ccccc21 [2-Hydroxy-1,4-naphthoquinone] | 7580 M⁻¹ s⁻¹ | 
4 | COC1=C(OC)C(=O)C(C)=CC1=O [Coenzyme Q0] | 6.45e+06 M⁻¹ s⁻¹ | 
5 | CC1=CC(=O)c2ccccc2C1=O [Menadione] | 677000 M⁻¹ s⁻¹ | 
6 | NC(=O)C1=CN([C@@H]2O[C@H](COP(=O)(O)OP(=O)(O)OC[C@H]3O[C@@H](n4cnc5c(N)ncnc54)[C@H](O)[C@@H]3O)[C@@H](O)[C@H]2O)C=CC1 [NADH] |  | 9.6 ± 2.4 mM
7 | NC(=O)C1=CN([C@@H]2O[C@H](COP(=O)(O)OP(=O)(O)OC[C@H]3O[C@@H](n4cnc5c(N)ncnc54)[C@H](OP(=O)(O)O)[C@@H]3O)[C@@H](O)[C@H]2O)C=CC1 [NADPH] |  | 12.5 ± 1.1 mM
8 | O=C1c2ccccc2C(=O)c2c1cccc2S(=O)(=O)O [Na-anthraquinone, α-sulfonate] | 1810 M⁻¹ s⁻¹ | 

Source: article PMC3004048 (Biochemistry, 2009)
